Results reported in US8431603B2, “3-phenylpyrazolo[5,1-b]thiazole compounds” (Eisai R&D Management Co., Ltd., priority 2008, dated 2013).

Test system: Balb/c mice
Assay: Light/dark box test in mice (anxiolytic effect)
Format: in vivo
Conditions: for anxiolytic effect in the light/dark box test: 30 mg/kg, oral administration; for minimal effective dose: Mus musculus, 1 h, minimum dose significantly prolonging time spent in the light box vs vehicle, oral, one hour prior to test
Description: The light/dark box test in mice was carried out according to a modified method of Belzung C., Misslin R., Vogel E. et al. (Reference; Behavioural effects of the benzodiazepine receptor partial agonist RO16-6028 in mice, Psychopharmacology, 97, 388-391, 1989). The test apparatus used was a light/dark box comprising a covered black acrylic box (dark box; 15×10×20 cm), an uncovered white acrylic box (light box; 15×20×20 cm) and a black acrylic tunnel (10×7×4.5 cm) which connects dark box and light box and enables a mouse to freely move back and forth between the dark box and light box. In this test apparatus, however, a transparent acrylic polymer was used for the front side (20×20 cm) and back side (20×20 cm) of the light box to allow observation of the behavior. After setting illumination so that the light intensity of the floor of the light box was 150 Lux, 5-week-old male Balb/c mice (purchased from Nihon Charles River) were introduced into the dark box at the beginning of the test. For the test, the tested compound was suspended in 5% dimethylsulfoxide, 5% Cremopor EL and 90% physiological saline and orally administered to the test animals one hour prior to the start of the test.
The time spent in the light box was measured as an index of the anxiolytic effect, with “spend in the light box” defined as the state in which all limbs of the mice were on the floor of the light box. […] The statistical significance between the vehicle-treated group and the test compound-treated groups was analyzed by one way analysis of variance followed by Dunnett multiple comparison when multiple doses were set for the same test, and by the Mann-Whitney U test when only one dose was set.

SMILES | anxiolytic effect in the light/dark box test | minimal effective dose
CCCCN(c1c(OC)nn2c(-c3c(OC)cc(COC)cc3OC)csc12)C1CCOCC1 [Example 1, N-Butyl-3-[2,6-dimethoxy-4-(methoxymethyl)phenyl]-6-methoxy-N-(tetrahydro-2H-pyran-4-yl)pyrazolo[5,1-b][1,3]thiazole-7-amine] | statistically significant effects | 30 mg/kg
CCCCN(c1c(OC)nn2c(-c3c(OC)cc(COCC)cc3OC)csc12)C1CCOCC1 [Example 2, N-Butyl-3-[4-(ethoxymethyl)-2,6-dimethoxyphenyl]-6-methoxy-N-(tetrahydro-2H-pyran-4-yl)pyrazolo[5,1-b][1,3]thiazole-7-amine] | statistically significant effects | 30 mg/kg
COCc1cc(OC)c(-c2csc3c(N(CC4CC4)C4CCOCC4)c(OC)nn23)c(OC)c1 [Example 9, N-(Cyclopropylmethyl)-3-[2,6-dimethoxy-4-(methoxymethyl)phenyl]-6-methoxy-N-(tetrahydro-2H-pyran-4-yl)pyrazolo[5,1-b][1,3]thiazole-7-amine] | statistically significant effects | 30 mg/kg
CCCN(c1c(OC)nn2c(-c3c(OC)cc(COC)cc3OC)csc12)C1CCOCC1 [Example 10, 3-[2,6-Dimethoxy-4-(methoxymethyl)phenyl]-6-methoxy-N-propyl-N-(tetrahydro-2H-pyran-4-yl)pyrazolo[5,1-b][1,3]thiazole-7-amine] | statistically significant effects | 30 mg/kg
CCCN(c1c(OC)nn2c(-c3c(Cl)cc(COC)cc3OC)csc12)C1CCOCC1 [Example 13, 3-[2-Chloro-6-methoxy-4-(methoxymethyl)phenyl]-6-methoxy-N-propyl-N-(tetrahydro-2H-pyran-4-yl)pyrazolo[5,1-b][1,3]thiazole-7-amine] | statistically significant effects | 30 mg/kg
